Measurements from patent US8916574B2, “4-(substituted anilino)-quinazoline derivatives useful as tyrosine kinase inhibitors” (Qilu Pharmaceutical Co., Ltd., priority 2009, dated 2014).
Like-named read-outs stand apart in the source and are kept apart here.

Key:
[1] = molecular target: Her2 receptor tyrosine kinase (Homo sapiens (Human), UniProt P04626); experiment: In vitro kinase analysis, HTScan HER2/ErbB2 Kinase Assay Kit (substrate peptide phosphorylation); type: biochemical
Protocol: (§1) Operation steps refer to the specification of the used kits, and the method was used to measure the inhibition effects of the compound to be tested on substrate peptide phosphorylation of EGFR or Her2 receptor tyrosine kinase. At room temperature, ATP and substrate peptide as well as the compound to be tested were incubated in kinase reaction buffer, after a period of incubation, a stop buffer was added to terminate the reaction and the sample was transferred to a streptavidin-coated 96-well plate, the plate was washed and the phosphorylation level of substrate peptide was detected by using HRP-marked antibody against substrate phosphorylation, colorated with TMB, terminated the reaction with 2M sulfuric acid. Absorption at 450 nm wavelength was detected, and IC50 value (μM) was calculated.

[2] = molecular target: EGFR receptor tyrosine kinase (Homo sapiens (Human), UniProt P00533); experiment: In vitro kinase analysis, HTScan EGF Receptor Kinase Assay Kit (substrate peptide phosphorylation); type: biochemical
Protocol: as §1

[3] = Pharmacokinetics in SD rats after a single intragastric dose; type: in vivo; settings: 100 mg/kg intragastric single dose, plasma
Protocol: The animals were fasted for 12 h before test, drinking water freely. And fed after 2 h of administration. At 0.25, 0.5, 1.0, 2.0, 3.0, 5.0, 7.0, 9.0, 12 and 24 h after administration, 0.3 ml blood samples were taken from venous plexus behind eyeball of rats into heparinized test tubes, then centrifuged at 11000 rpm for 5 min, plasma were separated, and preserved at […]. The concentrations of drug in original form and metabolites thereof in plasma were measured by liquid chromatography-mass spectrometry.

[4] = molecular target: hERG potassium currents (IKr) (Homo sapiens (Human), UniProt Q12809); experiment: hERG potassium currents, whole cell patch clamp in transfected HEK293 cells; type: cell-based; settings: HEK293 cells transfected with hERG cDNA
[5] = test system: human ovarian cancer SK-OV-3 transplanted tumor; experiment: Tumor inhibition at different dosages, SK-OV-3 transplanted tumor in nude mice; type: in vivo, BALB/cA-nude mice; settings: once per day, 21 days; for Animal number in each group: Partial regression: of 6 animals
Description: (§2) BALB/cA-nude mice, female, 4-6 weeks, body weight 22±2 g, were purchased from Shanghai SLAC Laboratory Animal Co. Ltd, raised in SPF grade environment.
(§3) In vitro cultured NCI-N87 cells were subcutaneously inoculated at right axillary fossa of nude mice, each was inoculated with about 5×10^6 cells, and passaged twice in vivo after tumor formation. Under sterile conditions, eugonic tumor tissues were cut into tumor pieces of about 1.5 mm^3, and inoculated at right axillary fossa of nude mice. Tumor diameters were measured by vernier caliper, the animals were randomly divided (d0) after the tumors grew to 100-200 mm^3. […] During administration period, the body weight of mice and the diameter of tumors were measured 3 times per week. The tumor volume and relative tumor volume were calculated according to the measured data, the formulation for calculating tumor volume (TV) is: TV=½×a×b^2, wherein a, b represent major diameter and minor diameter of tumor; the formulation for calculating relative tumor volume (RTV) is: RTV=Vt/V0, wherein V0 is the tumor volume measured when dividing groups for administration (i.e., d0), Vt is tumor volume measured each time. […] The formulation for calculating relative tumor inhibition rate is: 1−T/C (%).
Nude mice were subcutaneously inoculated with human ovarian cancer SK-OV-3 cells, after tumors grew to 60-150 mm^3, the animals were randomly divided into groups (d0). […] The tumor volume, and body weight of mice were measured 3 times per week, and all data were recorded. The tumor volume, relative tumor inhibition rate and so on were calculated according to the aforementioned methods.

[6] = test system: human ovarian cancer SK-OV-3 transplanted tumor; experiment: Tumor inhibition at a single dose, SK-OV-3 transplanted tumor in nude mice; type: in vivo, BALB/cA-nude mice; settings: 200 mg/kg intragastrically, once per day, 21 days; for Animal number in each group: Partial regression: of 6 animals
Description: as §2, §3
Nude mice were subcutaneously inoculated with human ovarian cancer SK-OV-3 cells, after tumors grew to 60-150 mm^3, the animals were randomly divided into groups (d0). […] During the administration period, the body weight of mice and the diameter of tumor were measured 3 times per week. The tumor volume, relative tumor inhibition rate and so on were calculated according to the aforementioned methods.

[7] = test system: human gastric cancer cell line NCI-N87; experiment: Test of cell proliferation inhibition (SRB), N87; type: cell-based; settings: for IC50: Homo sapiens, NCI-N87, 72 h, read-out: Test of cell proliferation inhibition IC50 N87
Protocol: (§4) The test was performed by referring to the method as described by Rusnak et al., Cell Prolif, 2007, 40, 580-594. The test of cell proliferation inhibition used human breast cancer cells BT474 and human gastric cancer cell line NCI-N87, BT474 over-expressing Her2 receptor, N87 over-expressing EGFR and Her2 receptor.
(§5) In a Dulbecco Modified Eagle Medium (DMEM) comprising 10% fetal bovine serum, 2 mM glutamine and non-essential amino acids, cells were cultured at 37° C. in 5% CO2 cell incubator, and trypsin/ethylenediamine tetraacetic acid (EDTA) were used to harvest cells in cell culture bottle. […] The change of cell form was observed under microscope, then 50 μl 50% (mass/volume)trichloroacetic acid (TCA) was added to per well to fix cells. The final concentration of TCA was 10%, standing for 5 min and placing in 4° C. refrigerator for 1 h, the wells of the culture plate were washed with deionized water for 5 times to remove TCA, drained, dried in air until no wet trace was observed. 100 μl of 0.4% (mass/volume) SRB was added to each well, stood at room temperature for 10 min, the liquid in each well was discarded, then the wells were washed with 1% acetic acid for 5 times, dried in air, extracted with 150 μl of 10 mM Tris base (trihydroxymethylaminomethane, pH 10.5), the absorption at 540 nm wavelength was detected.

[8] = test system: human breast cancer cells BT474; experiment: Test of cell proliferation inhibition (SRB), BT474; type: cell-based; settings: BT-474, 72 h
Protocol: as §4, §5

[9] = test system: human gastric cancer NCI-N87 transplanted tumor; experiment: Tumor inhibition at a single dose, NCI-N87 transplanted tumor in nude mice; type: in vivo, BALB/cA-nude mice; settings: 200 mg/kg intragastrically, once per day, 28 days; for Rate of tumor inhibition d21 (%): head prints d21; for d28 Vave (tumor volume): in mm³; for Animal number in each group: Partial regression: of 6 animals
Description: as §2, §3

Her2 receptor tyrosine kinase, sequence (P04626 23-1255): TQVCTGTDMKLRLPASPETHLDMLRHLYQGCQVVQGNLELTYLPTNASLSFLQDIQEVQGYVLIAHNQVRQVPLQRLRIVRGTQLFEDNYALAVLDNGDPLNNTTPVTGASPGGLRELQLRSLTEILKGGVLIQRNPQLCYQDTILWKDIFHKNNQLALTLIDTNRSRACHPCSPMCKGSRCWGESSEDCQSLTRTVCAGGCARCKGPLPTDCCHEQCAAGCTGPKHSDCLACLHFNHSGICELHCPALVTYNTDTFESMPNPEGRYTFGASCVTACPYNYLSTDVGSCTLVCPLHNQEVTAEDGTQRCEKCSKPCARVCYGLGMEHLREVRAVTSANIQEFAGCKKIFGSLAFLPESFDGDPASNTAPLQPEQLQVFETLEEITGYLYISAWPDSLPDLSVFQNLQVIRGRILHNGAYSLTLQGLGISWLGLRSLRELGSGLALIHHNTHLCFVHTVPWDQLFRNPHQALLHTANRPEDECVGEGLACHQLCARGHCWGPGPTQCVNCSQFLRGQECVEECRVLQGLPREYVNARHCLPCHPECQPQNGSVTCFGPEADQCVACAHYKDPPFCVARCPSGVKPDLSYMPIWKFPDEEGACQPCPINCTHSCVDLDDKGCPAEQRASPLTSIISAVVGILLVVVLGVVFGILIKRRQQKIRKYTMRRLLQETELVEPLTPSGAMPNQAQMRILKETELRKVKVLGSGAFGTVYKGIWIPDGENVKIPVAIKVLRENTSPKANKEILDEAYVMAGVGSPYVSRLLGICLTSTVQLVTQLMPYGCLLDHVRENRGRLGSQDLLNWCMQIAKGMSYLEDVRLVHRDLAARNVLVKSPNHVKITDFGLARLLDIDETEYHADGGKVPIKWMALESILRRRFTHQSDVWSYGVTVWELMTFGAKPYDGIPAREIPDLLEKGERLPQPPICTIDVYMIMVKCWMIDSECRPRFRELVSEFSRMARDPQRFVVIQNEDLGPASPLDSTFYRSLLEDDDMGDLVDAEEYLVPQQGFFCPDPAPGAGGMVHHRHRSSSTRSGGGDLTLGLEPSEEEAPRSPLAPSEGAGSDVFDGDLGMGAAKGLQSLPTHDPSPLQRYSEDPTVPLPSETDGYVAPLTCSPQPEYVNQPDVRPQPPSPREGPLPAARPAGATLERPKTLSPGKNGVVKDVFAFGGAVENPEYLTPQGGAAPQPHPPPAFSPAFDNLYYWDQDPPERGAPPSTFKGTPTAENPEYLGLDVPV
EGFR receptor tyrosine kinase, sequence (P00533 25-1210): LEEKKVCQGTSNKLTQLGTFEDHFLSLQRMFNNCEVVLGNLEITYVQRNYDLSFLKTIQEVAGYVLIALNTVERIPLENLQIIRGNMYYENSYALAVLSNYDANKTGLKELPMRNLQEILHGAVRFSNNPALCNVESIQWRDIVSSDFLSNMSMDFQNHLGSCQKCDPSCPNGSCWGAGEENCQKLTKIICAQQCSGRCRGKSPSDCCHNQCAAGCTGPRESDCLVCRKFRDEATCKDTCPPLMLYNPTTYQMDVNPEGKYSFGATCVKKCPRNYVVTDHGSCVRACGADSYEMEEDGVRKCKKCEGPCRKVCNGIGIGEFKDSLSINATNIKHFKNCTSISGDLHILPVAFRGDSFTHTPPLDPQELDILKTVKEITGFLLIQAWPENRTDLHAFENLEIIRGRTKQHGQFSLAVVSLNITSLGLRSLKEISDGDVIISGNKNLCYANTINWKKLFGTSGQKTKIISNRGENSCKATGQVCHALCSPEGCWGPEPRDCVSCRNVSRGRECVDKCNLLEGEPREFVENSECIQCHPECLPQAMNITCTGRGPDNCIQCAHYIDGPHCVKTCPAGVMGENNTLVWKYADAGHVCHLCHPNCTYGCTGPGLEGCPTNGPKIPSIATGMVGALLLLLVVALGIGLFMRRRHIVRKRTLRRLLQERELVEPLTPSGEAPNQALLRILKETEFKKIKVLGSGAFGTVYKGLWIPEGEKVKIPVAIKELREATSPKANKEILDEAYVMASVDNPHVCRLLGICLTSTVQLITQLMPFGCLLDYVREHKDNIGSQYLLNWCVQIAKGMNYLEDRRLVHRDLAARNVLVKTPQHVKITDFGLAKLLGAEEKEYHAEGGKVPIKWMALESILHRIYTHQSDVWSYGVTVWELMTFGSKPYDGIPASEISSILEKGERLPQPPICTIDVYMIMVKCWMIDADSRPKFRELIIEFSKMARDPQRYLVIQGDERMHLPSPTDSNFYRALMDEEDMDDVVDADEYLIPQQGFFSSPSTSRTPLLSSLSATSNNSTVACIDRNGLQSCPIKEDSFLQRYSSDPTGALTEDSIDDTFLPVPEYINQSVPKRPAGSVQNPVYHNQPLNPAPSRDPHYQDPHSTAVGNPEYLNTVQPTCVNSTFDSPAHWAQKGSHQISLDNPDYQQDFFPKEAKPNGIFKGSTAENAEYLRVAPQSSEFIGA
hERG potassium currents (IKr), sequence (Q12809 whole entry): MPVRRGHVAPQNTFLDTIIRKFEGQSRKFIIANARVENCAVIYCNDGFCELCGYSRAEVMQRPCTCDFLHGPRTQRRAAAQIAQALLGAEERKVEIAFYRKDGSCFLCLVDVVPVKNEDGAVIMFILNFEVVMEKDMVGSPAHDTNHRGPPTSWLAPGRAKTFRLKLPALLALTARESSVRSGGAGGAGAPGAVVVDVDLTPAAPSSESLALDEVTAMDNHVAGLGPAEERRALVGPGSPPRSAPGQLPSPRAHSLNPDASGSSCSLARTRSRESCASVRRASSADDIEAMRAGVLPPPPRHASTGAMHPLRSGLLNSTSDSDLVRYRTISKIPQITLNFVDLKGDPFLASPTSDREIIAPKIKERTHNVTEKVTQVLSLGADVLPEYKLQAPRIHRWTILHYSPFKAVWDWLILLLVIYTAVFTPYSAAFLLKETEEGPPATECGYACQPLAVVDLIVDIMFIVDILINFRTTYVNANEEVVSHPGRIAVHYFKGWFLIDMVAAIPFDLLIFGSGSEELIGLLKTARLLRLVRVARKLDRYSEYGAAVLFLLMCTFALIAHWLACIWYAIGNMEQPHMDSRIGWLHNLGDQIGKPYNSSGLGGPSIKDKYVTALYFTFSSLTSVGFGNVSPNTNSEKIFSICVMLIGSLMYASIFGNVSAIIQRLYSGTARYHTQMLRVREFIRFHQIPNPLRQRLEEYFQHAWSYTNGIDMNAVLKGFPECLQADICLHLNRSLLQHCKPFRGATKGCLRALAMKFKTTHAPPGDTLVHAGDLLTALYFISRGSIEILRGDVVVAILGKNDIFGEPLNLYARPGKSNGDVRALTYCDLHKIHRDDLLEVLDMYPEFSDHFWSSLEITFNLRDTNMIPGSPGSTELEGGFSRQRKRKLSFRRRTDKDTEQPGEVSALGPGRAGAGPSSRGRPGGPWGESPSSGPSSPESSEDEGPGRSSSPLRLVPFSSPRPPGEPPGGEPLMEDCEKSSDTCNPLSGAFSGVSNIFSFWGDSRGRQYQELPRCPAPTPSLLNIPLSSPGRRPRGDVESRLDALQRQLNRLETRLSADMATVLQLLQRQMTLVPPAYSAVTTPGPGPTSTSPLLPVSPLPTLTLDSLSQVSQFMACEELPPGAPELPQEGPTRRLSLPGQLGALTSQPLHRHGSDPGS

| Structure (SMILES) | IC50 [1] [nM] | IC50 [2] [nM] | Rate of tumor inhibition d21 (%) [6] [%] | d21 Vave (tumor volume) [6] [mm^3] | Animal number in each group: Partial regression [6] | IC50 [7] [nM] | IC50 [8] [nM] | Rate of tumor inhibition d21 (%) [9] [%] | d28 Vave (tumor volume) [9] | Animal number in each group: Partial regression [9] | further results |
| --- | --- | --- | --- | --- | --- | --- | --- | --- | --- | --- | --- |
| NS(=O)(=O)CCNCc1ccc(-c2ccc3ncnc(Nc4ccc(OCc5cccc(F)c5)c(Cl)c4)c3c2)o1 [Compound 1, N-(4-(3-fluorobenzyloxy)-3-chlorophenyl)-6-(5-((2-(sulfamoyl)ethylamino)methyl)-2-furyl)-quinazolin-4-amine] | 1.55 | – | – | – | – | – | – | – | – | – | – |
| C[S+]([O-])CCNCc1ccc(-c2ccc3ncnc(Nc4ccc(OCc5cccc(F)c5)c(Cl)c4)c3c2)o1 (centres unmarked) [Compound 2, N-(4-(3-fluorobenzyloxy)-3-chlorophenyl)-6-(5-((2-(methylsulfinyl)ethylamino)methyl)-2-furyl)-quinazolin-4-amine] | – | 52.7 | – | – | – | – | – | – | – | – | AUC0-t ± SD [3]: 50299 ± 12863 ng·h/mL; AUC0-∞ ± SD [3]: 53236 ± 12248 ng·h/mL; Cmax ± SD [3]: 8881 ± 2061 ng/mL; MRT ± SD [3]: 5.38 ± 0.59 h; T1/2 ± SD [3]: 2.32 ± 0.5 h; Tmax ± SD [3]: 3.5 ± 1.0 h; IC50 ([4]; read-out: semi-effective inhibition dose IC50 for IKr pulse current): 10.1 ± 0.96 µM; IC50 ([4]; read-out: semi-effective inhibition dose IC50 for tail current): ~9.24 µM |
| CSCCNCc1ccc(-c2ccc3ncnc(Nc4ccc(OCc5cccc(F)c5)c(Cl)c4)c3c2)o1 [Compound 3, N-(4-(3-fluorobenzyloxy)-3-chlorophenyl)-6-(5-((2-(methylthio)ethylamino)methyl)-2-furyl)-quinazolin-4-amine] | 34.6 | 56.2 | 75 | 334.8 | 0 | 24.9 | 23.4 | 84.6 | 143.01 | 4 | RTV (relative tumor volume) ([5]; 50 mg/kg intragastrically): 6.9; Rate of tumor inhibition d21 (%) ([5]; 50 mg/kg intragastrically): 32%; d21 Vave (tumor volume) ([5]; 50 mg/kg intragastrically): 830.7 mm^3; Animal number in each group: Partial regression ([5]; 50 mg/kg intragastrically): 0; RTV (relative tumor volume) ([5]; 100 mg/kg intragastrically): 6.5; Rate of tumor inhibition d21 (%) ([5]; 100 mg/kg intragastrically): 36%; d21 Vave (tumor volume) ([5]; 100 mg/kg intragastrically): 778.6 mm^3; Animal number in each group: Partial regression ([5]; 100 mg/kg intragastrically): 0; RTV (relative tumor volume) ([5]; 200 mg/kg intragastrically): 4.4; Rate of tumor inhibition d21 (%) ([5]; 200 mg/kg intragastrically): 56%; d21 Vave (tumor volume) ([5]; 200 mg/kg intragastrically): 612.6 mm^3; Animal number in each group: Partial regression ([5]; 200 mg/kg intragastrically): 0; RTV (relative tumor volume) [6]: 2.7; RTV (relative tumor volume) [9]: 0.743 |
| CS(=O)(=O)NCCNCc1ccc(-c2ccc3ncnc(Nc4ccc(OCc5cccc(F)c5)c(Cl)c4)c3c2)o1 [Compound 4, N-(4-(3-fluorobenzyloxy)-3-chlorophenyl)-6-(5-((2-(methylsulfonamido)ethylamino)methyl)-2-furyl)-quinazolin-4-amine] | 7.06 | 15.5 | – | – | – | – | – | – | – | – | – |
| O=S(=O)(CCNCc1ccc(-c2ccc3ncnc(Nc4ccc(OCc5cccc(F)c5)c(Cl)c4)c3c2)o1)CC(F)(F)F [Compound 5, N-(4-(3-fluorobenzyloxy)-3-chlorophenyl)-6-(5-((2-(2,2,2-trifluoroethylsulfonyl)ethylamino)methyl)-2-furyl)-quinazolin-4-amine] | 8.08 | 14.6 | 45 | 770.9 | 0 | 33.7 | 18.8 | 46.8 | 414.78 | 1 | RTV (relative tumor volume) [6]: 5.8; RTV (relative tumor volume) [9]: 2.574 |
| O=S(=O)(CCNCc1ccc(-c2ccc3ncnc(Nc4ccc(OCc5cccc(F)c5)c(Cl)c4)c3c2)o1)C(F)(F)F [Compound 6, N-(4-(3-fluorobenzyloxy)-3-chlorophenyl)-6-(5-((2-(trifluoromethylsulfonyl)ethylamino)methyl)-2-furyl)-quinazolin-4-amine] | 25.6 | 32.4 | – | – | – | 54.6 | 49.7 | – | – | – | – |
| CS(=O)(=O)CCNCc1ccc(-c2ccc3ncnc(Nc4ccc(OCc5cccc(F)c5)c(Cl)c4)c3c2)o1 [Compound 61, N-(4-(3-fluorobenzyloxy)-3-chlorophenyl)-6-(5-((2-(methylsulfonyl)ethylamino)methyl)-2-furyl)-quinazolin-4-amine, reference compound] | – | – | 79 | 291.0 | 1 | – | – | 89.8 | 106.20 | 5 | Rate of tumor inhibition d21 (%) ([5]; 200 mg/kg intragastrically): 75%; d21 Vave (tumor volume) ([5]; 200 mg/kg intragastrically): 350.1 mm^3; Animal number in each group: Partial regression ([5]; 200 mg/kg intragastrically): 0; biological activity results in the same test (in words) ([7]; same test as Table 1 (cell proliferation inhibition, N87 and BT474), comparison in words): close to those of compound 6; AUC0-t ± SD [3]: 26908 ± 9085 ng·h/mL; AUC0-∞ ± SD [3]: 26921 ± 9092 ng·h/mL; Cmax ± SD [3]: 3902 ± 1208 ng/mL; MRT ± SD [3]: 5.52 ± 0.90 h; T1/2 ± SD [3]: 1.91 ± 0.45 h; Tmax ± SD [3]: 2.5 ± 0.6 h |
